Source: patent publication US5958947A, “DNA-affinic hypoxia selective cytotoxins” (priority 1996, dated 1999)
Entries after “also recorded” stand apart in the source; their conditions may differ. Counter-ions that a name gives are not always drawn. Like-named read-outs stand apart in the source and are kept apart here.

Columns and labels:
[1] = Acute aerobic and hypoxic cytotoxicity (colony formation); type: cell-based, Chinese hamster; settings: chinese hamster, aerobic v79 cells, aerobic, 1 hour, 37° C.; for IC50 at 1 h: V79 cells, 50% inhibition of clonogenicity
Experimental: (§1) Samples of V79 Chinese hamster lung cells used in the following experiments were prepared as follows. V79 cells, exponentially growing as monolayer cultures in RPMI 1640 medium (Mediatech) supplemented with 10% fetal calf serum, were trypsinized, centrifuged for 5 min, harvested, then suspended in 25 ml Erlenmeyer flasks fitted with rubber caps at 5×10^5 cells/ml (5 ml). Individual flasks either were shaken (100 rpm) at 37° C. under aerobic conditions or made hypoxic by gassing with a 95% N2 (nitrogen)/5% CO2 (carbon dioxide) humidified gas mixture for 1 hour.
(§2) To determine the fraction of surviving cells, samples were removed, diluted and plated to provide 2×10^2 to 2×10^4 cells/well on 60 mm Linbro multi-well plates (Flow Laboratories, McLean, Virginia). The plates were incubated at 37° C. for 6 days, stained with crystal violet and examined for colony formation. Colonies of 50 cells or greater were counted. Each plotted point in FIGS. 1 and 2 represent the mean of three or four replicate experiments.

[2] = system: V79 Chinese hamster lung cells; test: as above; type: cell-based; settings: for IC50: V79, 1 h, hypoxia, 50% inhibition of clonogenicity; for viability at 100 µM: 3.5 hours
Experimental: as §1, §2

[3] = system: calf thymus Topo I; test: Topoisomerase I interaction (relaxation of supercoiled DNA); type: biochemical; settings: 800 μM, compound alone
[4] = system: V79 cells; test: Chemosensitization to L-PAM or cis-DDP in V79 cells; type: cell-based, Chinese hamster; settings: for chemosensitization to L-PAM or cis-DDP: V79 cells
Experimental: L-PAM, also known as phenylalanine mustard and available from Sigma Chem. Co., St. Louis, Mo., first was dissolved in an ethanolic solution of HCl (0.5N). The ethanolic HCl solution was buffered with propylene glycol in a 1:9 ratio of ethanolic HCl solution to propylene glycol, and finally diluted 100 fold with suspension medium. cis-DDP, a platinum-based chemotherapeutic agent available from Sigma Chem. Co., St. Louis, Mo., was dissolved in water to a predetermined concentration.
Experiments using a simultaneous addition of the sensitizer and chemotherapeutic agent for 1 hour at 37° C. under aerobic conditions were also performed.
In all experiments, controls for the hypoxic cytotoxicity of the sensitizer and the toxicity of the chemotherapeutic alone were included. Survival curves were normalized for the hypoxic cytotoxicity of sensitizer in order to determine the dose modification factor (DMF), i.e., the ratio of chemotherapeutic agent concentrations required to reduce cell survival to a predetermined level (e.g., 0.5) alone or in combination with a sensitizer. Synergism between the chemotherapeutic agent and the chemosensitizer was determined using the fractional product concept which is applied in instances of independent action of drugs, or by isobologramic analysis. The results of the chemosensitization studies are illustrated in FIGS. 12-15.

[5] = Water solubility
[6] = system: V79 cells; test: Drug uptake: intracellular and extracellular concentrations in V79 cells; type: cell-based, Chinese hamster
Experimental: Also, uptake measurements at various times under both aerobic and hypoxic conditions were made. Afterwards, the samples were pelleted by centrifuging for 6 minutes at 0° C. A small volume of the supernatant (200 μl) was combined with 9 equal volumes (1.8 ml) of acetonitrile and the remaining supernatant was discarded. The samples were centrifuged again to remove residual supernatant and the pellets were lysed with 90 μl water and deproteinized with 0.9 ml acetonitrile. After centrifugation and filtration, all samples were stored at -70° C. until a UV spectroscopic analysis was made at two different wave lengths: 330 nm (nanometers) (absorption of the nitro-group) and 244 nm (λmax). […] Mean intracellular concentration of drug was calculated using a value of 810 fl as an intracellular water content of log-phase cells.
Concentrations were determined by UV spectrophotometry at 330 nm. The plotted points represent results from two experiments, in triplicate.

[7] = system: V79 cells; test: Drug uptake in the presence of ammonium chloride; type: cell-based, Chinese hamster; settings: aerobic V79 cells, 60 μM input, 50 mM NH4Cl (stated for THNLA-1)
Experimental: Uptake measurements in the presence of the lysosomotropic agent ammonium chloride (NH4 Cl) also were performed in a manner as previously described.
Concentrations were determined by UV spectrophotometry at 330 nm. The plotted points represent the mean of two experiments.

[8] = system: OVCAR cells; test: Chemosensitization of OVCAR cells to L-PAM and cis-DDP; type: cell-based; settings: OVCAR cells resistant to L-PAM and cis-DDP
From the text: A longer hypoxic preexposure time and a lower sensitizer dose are preferred over a shorter hypoxic preexposure time and a higher sensitizer dose. […] OVCAR cells are resistant to L-PAM and cis-DDP.

[9] = system: EMT6 tumors; test: In vivo radiosensitization of EMT6 tumors; set-up: species or system balb mice; settings: 0.103 mmol/g intraperitoneally, 20 Gy
[10] = Toxicity study in balb mice; type: in vivo
[11] = Cricetulus griseus, V79 cells, 1 hour, 37° C.

O=[N+]([O-])c1nccn1CCCNc1c2c(nc3ccccc13)CCSC2 [S-THNLA-1, 10-[3-(2-nitroimidazolyl)propylamino]-3,4-dihydro-1-H-thiopyrano[4,3-b]quinoline hydrochloride]
IC50 at 1 h [1]: 580 µM
IC50 [2, 11]: 68 µM
Hypoxic selectivity (differential aerobic/hypoxic toxicity): IC50/A,1h /IC50/H,1h ([2]; V79 cells, 1 hour, 37° C.): about 9
formation of nicked DNA by compound alone [3]: caused the formation of some nicked DNA
chemosensitization to L-PAM or cis-DDP [4]: strong chemosensitizers
solubility [5]: ~9.5 mM

Cl.O=[N+]([O-])c1nccn1CCCNc1c2c(nc3ccccc13)CCCC2 [THNLA-1, 9-[3-(2-nitro-1-imidazolyl)propylamino]-1,2,3,4-tetrahydroacridine hydrochloride]
IC50 at 1 h [1]: ~360 µM
IC90 at 1 h ([1]; read-out: concentration to achieve a 10% survival fraction, aerobic): ~475 µM
IC50 [2, 11]: ~33 µM
IC90 ([2]; Cricetulus griseus, V79, hypoxic, 1 hour, 37° C., read-out: concentration to achieve a 10% survival fraction, hypoxic): ~100 µM
viability at 100 µM ([2]; V79, aerobic, read-out: survival fraction, aerobic): ~50%
viability at 100 µM ([2]; V79, hypoxic, read-out: survival fraction, hypoxic): < 0.002%
Ci over 15, 30 and 60 minutes, aerobic ([6]; 20 μM, aerobic V79 cells, 37° C.): basically unchanged
Ci over time, hypoxic ([6]; 20 μM, hypoxic V79 cells, 37° C.): a decrease of Ci over time
Ci compared with Ce ([6]; V79 cells, 37° C., input 0 to 500 μM or 20 μM): substantially greater
aerobic mean uptake factor (Ci/Ce) compared to NLA-1 ([6]; aerobic V79 cells): did not result in an increase of the aerobic mean uptake factor
input concentration at which the uptake factor (Ci/Ce) reaches a maximum ([6]; aerobic, 30 minutes, 37° C.): about 100 μM
factor of decrease of Ci in the presence of NH4Cl [7]: about 3
DMF value of L-PAM at 0.5 survival fraction ([4]; 10 μM THNLA-1, 2 hours hypoxic pretreatment, then L-PAM 1 hour aerobic): 3.2
DMF value of cis-DDP at 0.5 survival fraction ([4]; 15 μM THNLA-1, 2 hours hypoxic pretreatment, then cis-DDP 1 hour aerobic): 4.2
chemosensitization to L-PAM or cis-DDP ([4]; hydrochloride): powerful potentiator of chemotherapeutic agent toxicity; also recorded: strong chemosensitizers
potentiation of L-PAM or cis-DDP under aerobic conditions ([4]; aerobic exposure): no potentiation occurred
DMF compared with NLA-1 ([4]; cis-DDP or L-PAM combination, about 30% of the IC50/H,1h, hydrochloride): slightly greater than the DMF value obtained using a combination including NLA-1; also recorded: significantly more efficacious chemosensitizer than NLA-1
interaction with L-PAM or cis-DDP ([4]; hypoxic pretreatment, isobologram and fractional product concept, hydrochloride): synergistic interaction; also recorded: dramatic decrease in survival fraction; also recorded: unexpected synergistic effect
chemosensitization to L-PAM and cis-DDP [8]: effectively chemosensitizes OVCAR cells
administration time before irradiation for maximum radiosensitization [9]: at least one hour before irradiation
radiosensitizing effect in vivo ([9]; EMT6 tumors in balb mice, hydrochloride): synergistic effect; also recorded: potent radiosensitizing effect; also recorded: enhanced the effects of 20 Gy radiation in EMT6 tumors to a similar degree as 2 mmol/g of etanidazole
nontoxic concentration [10]: at least 0.129 mmol/g
solubility [5]: ~12 mM
